*1 amine or outer side, *2 acyl side, *3 side chain or, on linkers, in order; H or OH if unused. Where a SMILES comes first, the peptide text is derived from it. Side-chain parts run from the residue outwards. [ ]: non-standard residue; d: D form. The star is where a group is joined. γGlu = O=C(O)[C@H](CCC(=O)[*:2])N[*:1]; Stearoyl = CCCCCCCCCCCCCCCCCC(=O)*; Palmitoyl = CCCCCCCCCCCCCCCC(=O)*; Aib = CC(C)(N)C(=O)O
Key:
Assay type in all cases: cell-based
Settings in all cases: Table 7; cAMP formation
[1] = target: T1, human GIP receptor (hGIP R) (Homo sapiens, UniProt P48546); assay: cAMP response of HEK-293 cells stably expressing human GIP receptor (HTRF)
T1 construct: expressed in transfected cells
T1 sequence (P48546 22-466): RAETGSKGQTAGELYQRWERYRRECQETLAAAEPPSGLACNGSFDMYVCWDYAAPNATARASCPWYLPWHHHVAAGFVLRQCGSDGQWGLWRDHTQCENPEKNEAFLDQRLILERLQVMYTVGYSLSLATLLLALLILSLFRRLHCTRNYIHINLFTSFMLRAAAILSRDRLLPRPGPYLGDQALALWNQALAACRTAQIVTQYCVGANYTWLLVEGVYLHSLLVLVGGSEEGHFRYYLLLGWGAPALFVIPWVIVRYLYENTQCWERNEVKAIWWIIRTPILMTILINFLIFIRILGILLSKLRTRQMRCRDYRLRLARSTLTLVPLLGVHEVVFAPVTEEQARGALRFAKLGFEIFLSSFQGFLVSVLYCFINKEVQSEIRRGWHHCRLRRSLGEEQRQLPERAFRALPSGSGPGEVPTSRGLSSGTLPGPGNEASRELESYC
Method in brief: (§1)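 HTRF read-out of cellular cAMP after 30 min compound exposure at room temperature. Accutase-detached cells were suspended at 400000 cells/ml in HBSS buffer containing 20 mM HEPES, 0.1% BSA and 2 mM IBMX phosphodiesterase inhibitor.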

[2] = target: T2, human GLP-1 receptor (hGLP-1 R) (Homo sapiens, UniProt P43220); assay: cAMP response of HEK-293 cells stably expressing human GLP-1 receptor (HTRF)
T2 construct: expressed in transfected cells
T2 sequence (P43220 24-463): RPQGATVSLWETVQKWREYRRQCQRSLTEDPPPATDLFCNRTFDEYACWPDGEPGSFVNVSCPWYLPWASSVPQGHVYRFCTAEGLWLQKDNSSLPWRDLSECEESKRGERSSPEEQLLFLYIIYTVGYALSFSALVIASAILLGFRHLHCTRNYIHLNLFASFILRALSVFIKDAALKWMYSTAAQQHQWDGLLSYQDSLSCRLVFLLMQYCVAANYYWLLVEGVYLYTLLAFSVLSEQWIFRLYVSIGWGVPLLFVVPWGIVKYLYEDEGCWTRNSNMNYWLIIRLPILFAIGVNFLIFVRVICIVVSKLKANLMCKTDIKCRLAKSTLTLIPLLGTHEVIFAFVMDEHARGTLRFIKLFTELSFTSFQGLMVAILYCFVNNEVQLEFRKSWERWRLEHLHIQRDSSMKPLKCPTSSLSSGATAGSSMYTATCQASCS
Method in brief: as §1

[3] = target: T3, human glucagon receptor (hGLUC R) (Homo sapiens, UniProt P47871); assay: cAMP response of HEK-293 cells stably expressing human glucagon receptor (HTRF)
T3 construct: expressed in transfected cells
T3 sequence (P47871 26-477): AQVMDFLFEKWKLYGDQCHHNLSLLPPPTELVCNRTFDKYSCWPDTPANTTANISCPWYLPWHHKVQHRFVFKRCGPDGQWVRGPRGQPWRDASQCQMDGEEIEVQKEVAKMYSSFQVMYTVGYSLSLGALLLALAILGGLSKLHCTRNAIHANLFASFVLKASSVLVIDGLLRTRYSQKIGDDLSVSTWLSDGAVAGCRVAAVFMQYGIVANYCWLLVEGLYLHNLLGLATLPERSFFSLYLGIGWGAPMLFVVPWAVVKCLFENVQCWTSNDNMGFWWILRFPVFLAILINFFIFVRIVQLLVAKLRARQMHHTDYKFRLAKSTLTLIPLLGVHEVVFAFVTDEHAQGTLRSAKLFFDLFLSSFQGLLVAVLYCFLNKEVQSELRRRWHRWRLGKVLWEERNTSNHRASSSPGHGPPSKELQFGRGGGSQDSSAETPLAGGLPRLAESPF
Method in brief: as §1

Compound	EC50 [1] [nM]	EC50 [2] [nM]	EC50 [3] [nM]
CCCCCCCCCCCCCCCC(=O)N[C@@H](CCC(=O)NCCCC[C@H](NC(=O)[C@H](CCC(N)=O)NC(=O)[C@@H](NC(=O)[C@H](CO)NC(=O)[C@H](CC(C)C)NC(=O)[C@H](CC(=O)O)NC(=O)[C@H](CO)NC(=O)[C@@H](NC(=O)[C@H](Cc1ccccc1)NC(=O)[C@@H](NC(=O)CNC(=O)[C@H](CCC(N)=O)NC(=O)C(C)(C)NC(=O)[C@@H](N)Cc1ccc(O)cc1)[C@@H](C)O)[C@@H](C)O)[C@@H](C)CC)C(=O)N[C@@H](CCC(=O)O)C(=O)N[C@@H](CCCCN)C(=O)N[C@@H](CCCNC(=N)N)C(=O)N[C@@H](C)C(=O)N[C@@H](C)C(=O)N[C@@H](Cc1c[nH]cn1)C(=O)N[C@@H](CCC(=O)O)C(=O)N[C@@H](Cc1ccccc1)C(=O)N[C@H](C(=O)N[C@@H](CCC(=O)O)C(=O)N[C@@H](Cc1c[nH]c2ccccc12)C(=O)N[C@@H](CC(C)C)C(=O)N[C@@H](CCCCN)C(=O)N[C@@H](CC(N)=O)C(=O)N[C@H](C(=O)NCC(=O)N1CCC[C@H]1C(=O)N[C@@H](CO)C(=O)N[C@@H](CO)C(=O)NCC(=O)N[C@@H](C)C(=O)N1CCC[C@H]1C(=O)N1CCC[C@H]1C(=O)N1CCC[C@H]1C(=O)N[C@@H](CO)C(N)=O)[C@@H](C)O)[C@@H](C)CC)C(=O)O [SEQ ID NO: 36, Y-Aib-Q-G-T-F-T-S-D-L-S-I-Q-K(yE-x53)-EKRAAHEFIEWLKNTGPSSGAPPPS-NH2] (H-Y[Aib]QGTFTSDLSIQK([γGlu-Palmitoyl])EKRAAHEFIEWLKNTGPSSGAPPPS-NH2)	0.0301	0.0052	0.0395
CCCCCCCCCCCCCCCC(=O)N[C@@H](CCC(=O)NCCCC[C@H](NC(=O)[C@H](CCC(N)=O)NC(=O)[C@@H](NC(=O)[C@H](CO)NC(=O)[C@H](CC(C)C)NC(=O)[C@H](CC(=O)O)NC(=O)[C@H](CO)NC(=O)[C@@H](NC(=O)[C@H](Cc1ccccc1)NC(=O)[C@@H](NC(=O)CNC(=O)[C@H](CCC(=O)O)NC(=O)C(C)(C)NC(=O)[C@@H](N)Cc1ccc(O)cc1)[C@@H](C)O)[C@@H](C)O)[C@@H](C)CC)C(=O)N[C@@H](CCC(=O)O)C(=O)N[C@@H](CCC(=O)O)C(=O)N[C@@H](CCC(N)=O)C(=O)N[C@@H](C)C(=O)N[C@@H](C)C(=O)N[C@@H](Cc1c[nH]cn1)C(=O)N[C@@H](CCC(=O)O)C(=O)N[C@@H](Cc1ccccc1)C(=O)N[C@H](C(=O)N[C@@H](CCC(=O)O)C(=O)N[C@@H](Cc1c[nH]c2ccccc12)C(=O)N[C@@H](CC(C)C)C(=O)N[C@@H](CCCCN)C(=O)N[C@@H](CCCNC(=N)N)C(=O)NC(C)(C)C(=O)NCC(=O)N1CCC[C@H]1C(=O)N[C@@H](CO)C(=O)N[C@@H](CO)C(=O)NCC(=O)N[C@@H](C)C(=O)N1CCC[C@H]1C(=O)N1CCC[C@H]1C(=O)N1CCC[C@H]1C(=O)N[C@@H](CO)C(N)=O)[C@@H](C)CC)C(=O)O [SEQ ID NO: 38, Y-Aib-E-G-T-F-T-S-D-L-S-I-Q-K(yE-x53)-E-E-Q-A-A-H-E-F-I-E-W-L-K-R-Aib-G-P-S-S-G-A-P-P-P-S-NH2]	0.0074	0.009	22.5
CCCCCCCCCCCCCCCC(=O)N[C@@H](CCC(=O)NCCCC[C@H](NC(=O)[C@H](CCC(N)=O)NC(=O)[C@H](CCCCN)NC(=O)[C@H](CO)NC(=O)[C@H](CC(C)C)NC(=O)[C@H](CC(=O)O)NC(=O)[C@H](CO)NC(=O)[C@@H](NC(=O)[C@H](Cc1ccccc1)NC(=O)[C@@H](NC(=O)CNC(=O)[C@H](CCC(N)=O)NC(=O)C(C)(C)NC(=O)[C@@H](N)Cc1ccc(O)cc1)[C@@H](C)O)[C@@H](C)O)C(=O)N[C@@H](CCC(=O)O)C(=O)N[C@@H](CO)C(=O)N[C@@H](CCCCN)C(=O)N[C@@H](C)C(=O)N[C@@H](C)C(=O)N[C@@H](CCC(N)=O)C(=O)N[C@@H](CC(=O)O)C(=O)N[C@@H](Cc1ccccc1)C(=O)N[C@H](C(=O)N[C@@H](CCC(=O)O)C(=O)N[C@@H](Cc1c[nH]c2ccccc12)C(=O)N[C@@H](CC(C)C)C(=O)N[C@@H](CCCCN)C(=O)N[C@@H](C)C(=O)NCC(=O)NCC(=O)N1CCC[C@H]1C(=O)N[C@@H](CO)C(=O)N[C@@H](CO)C(=O)NCC(=O)N[C@@H](C)C(=O)N1CCC[C@H]1C(=O)N1CCC[C@H]1C(=O)N1CCC[C@H]1C(=O)N[C@@H](CO)C(N)=O)[C@@H](C)CC)C(=O)O [SEQ ID NO: 39, Y-Aib-Q-G-T-F-T-S-D-L-S-K-Q-K(yE-x53)-ESKAAQDFIEWLKAGGPSSGAPPPS-NH2] (H-Y[Aib]QGTFTSDLSKQK([γGlu-Palmitoyl])ESKAAQDFIEWLKAGGPSSGAPPPS-NH2)	0.0385	0.0045	0.0192
CCCCCCCCCCCCCCCCCC(=O)N[C@@H](CCC(=O)NCCCC[C@H](NC(=O)[C@H](CCC(N)=O)NC(=O)[C@H](CCCCN)NC(=O)[C@H](CO)NC(=O)[C@H](CC(C)C)NC(=O)[C@H](CC(=O)O)NC(=O)[C@H](CO)NC(=O)[C@@H](NC(=O)[C@H](Cc1ccccc1)NC(=O)[C@@H](NC(=O)CNC(=O)[C@H](CCC(N)=O)NC(=O)C(C)(C)NC(=O)[C@@H](N)Cc1ccc(O)cc1)[C@@H](C)O)[C@@H](C)O)C(=O)N[C@@H](CC(=O)O)C(=O)N[C@@H](CO)C(=O)N[C@@H](CCCCN)C(=O)N[C@@H](C)C(=O)N[C@@H](C)C(=O)N[C@@H](CCC(N)=O)C(=O)N[C@@H](CC(=O)O)C(=O)N[C@@H](Cc1ccccc1)C(=O)N[C@H](C(=O)N[C@@H](CCC(=O)O)C(=O)N[C@@H](Cc1c[nH]c2ccccc12)C(=O)N[C@@H](CC(C)C)C(=O)N[C@@H](CCCCN)C(=O)N[C@@H](C)C(=O)NCC(=O)NCC(=O)N1CCC[C@H]1C(=O)N[C@@H](CO)C(=O)N[C@@H](CO)C(=O)NCC(=O)N[C@@H](C)C(=O)N1CCC[C@H]1C(=O)N1CCC[C@H]1C(=O)N1CCC[C@H]1C(=O)N[C@@H](CO)C(N)=O)[C@@H](C)CC)C(=O)O [SEQ ID NO: 41, Y-Aib-Q-G-T-F-T-S-D-L-S-K-Q-K(yE-x70)-DSKAAQDFIEWLKAGGPSSGAPPPS-NH2] (H-Y[Aib]QGTFTSDLSKQK([γGlu-Stearoyl])DSKAAQDFIEWLKAGGPSSGAPPPS-NH2)	0.186	0.0241	0.0265
CCCCCCCCCCCCCCCC(=O)N[C@@H](CCC(=O)NCCCC[C@H](NC(=O)[C@H](CCC(N)=O)NC(=O)[C@@H](NC(=O)[C@H](CO)NC(=O)[C@H](CC(C)C)NC(=O)[C@H](CC(=O)O)NC(=O)[C@H](CO)NC(=O)[C@@H](NC(=O)[C@H](Cc1ccccc1)NC(=O)[C@@H](NC(=O)CNC(=O)[C@H](CCC(N)=O)NC(=O)C(C)(C)NC(=O)[C@@H](N)Cc1ccc(O)cc1)[C@@H](C)O)[C@@H](C)O)[C@@H](C)CC)C(=O)N[C@@H](CC(=O)O)C(=O)N[C@@H](CO)C(=O)N[C@@H](CCCNC(=N)N)C(=O)N[C@@H](C)C(=O)N[C@@H](C)C(=O)N[C@@H](CCC(N)=O)C(=O)N[C@@H](CC(=O)O)C(=O)N[C@@H](Cc1ccccc1)C(=O)N[C@H](C(=O)N[C@@H](CCC(=O)O)C(=O)N[C@@H](Cc1c[nH]c2ccccc12)C(=O)N[C@@H](CC(C)C)C(=O)N[C@@H](CCCCN)C(=O)N[C@@H](CCCCN)C(=O)NCC(=O)NCC(=O)N1CCC[C@H]1C(=O)N[C@@H](CO)C(=O)N[C@@H](CO)C(=O)NCC(=O)N[C@@H](C)C(=O)N1CCC[C@H]1C(=O)N1CCC[C@H]1C(=O)N1CCC[C@H]1C(=O)N[C@@H](CO)C(N)=O)[C@@H](C)CC)C(=O)O [SEQ ID NO: 43, Y-Aib-Q-G-T-F-T-S-D-L-S-I-Q-K(yE-x53)-DSRAAQDFIEWLKKGGPSSGAPPPS-NH2] (H-Y[Aib]QGTFTSDLSIQK([γGlu-Palmitoyl])DSRAAQDFIEWLKKGGPSSGAPPPS-NH2)	0.0482	0.007	0.114
